Experimental data taken from PubChem BioAssay AID256 (DTP/NCI, 2004).
Toxic doses and inconclusive results are not listed.

Tested on: CD2F1 mice, L1210 leukemia ip, survival T/C
Assay: NCI In Vivo Anticancer Drug Screen. Data for tumor model L1210 Leukemia (intraperitoneal) in CD2F1 (CDF1) mice
Conditions: higher = longer survival
Procedure, shortened: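 Vehicle-treated tumor-bearing mice served as controls (C) for compound-treated mice (T). Reported figure is T divided by C.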

[1] = endpoint: mean survival time, dose: 100.0 mg/kg/injection, schedule: Q01DX009 (ip), vehicle: saline with Tween-80
[2] = endpoint: mean survival time, dose: 100.0 mg/kg/injection, schedule: Q04DX003 (ip), vehicle: saline with Tween-80
[3] = endpoint: mean survival time, dose: 200.0 mg/kg/injection, schedule: Q01DX009 (ip), vehicle: saline with Tween-80
[4] = endpoint: mean survival time, dose: 200.0 mg/kg/injection, schedule: Q04DX003 (ip), vehicle: saline with Tween-80
[5] = endpoint: mean survival time, dose: 400.0 mg/kg/injection, schedule: Q01DX009 (ip), vehicle: saline with Tween-80

## CCCCCCCCCCC(=O)OCC1OC2C(Oc3nc(=N)ccn32)C1OC(=O)CCCCCCCCCC (stereo unspecified)
endpoint: mean survival time, dose: 12.5 mg/kg/injection, schedule: Q01DX009 (ip), vehicle: water
  T/C: 156 % of control
endpoint: mean survival time, dose: 25.0 mg/kg/injection, schedule: Q01DX009 (ip), vehicle: water
  T/C: 202 % of control
endpoint: mean survival time, dose: 50.0 mg/kg/injection, schedule: Q01DX009 (ip), vehicle: water
  T/C: 242 % of control
endpoint: mean survival time, dose: 100.0 mg/kg/injection, schedule: Q01DX009 (ip), vehicle: water
  T/C: 118 % of control

## COC(=O)c1cc(Br)c(I)c([N+](=O)[O-])c1
[1]
  T/C: 102 % of control
[2]
  T/C: 95 % of control
[3]
  T/C: 108 % of control
[4]
  T/C: 106 % of control
[5]
  T/C: 105 % of control
endpoint: mean survival time, dose: 400.0 mg/kg/injection, schedule: Q04DX003 (ip), vehicle: saline with Tween-80
  T/C: 97 % of control

## COC(=O)C1OC([n+]2ccccc2)C(OC(C)=O)C(OC(C)=O)C1OC(C)=O (stereo unspecified)
endpoint: median survival time, dose: 12.5 mg/kg/injection, schedule: Q01DX005 (ip), vehicle: saline
  T/C: 103 % of control
endpoint: median survival time, dose: 25.0 mg/kg/injection, schedule: Q01DX005 (ip), vehicle: saline
  T/C: 107 % of control
endpoint: median survival time, dose: 50.0 mg/kg/injection, schedule: Q01DX005 (ip), vehicle: saline
  T/C: 100 % of control
endpoint: median survival time, dose: 100.0 mg/kg/injection, schedule: Q01DX005 (ip), vehicle: saline
  T/C: 107 % of control
endpoint: median survival time, dose: 200.0 mg/kg/injection, schedule: Q01DX005 (ip), vehicle: saline
  T/C: 103 % of control

## CC1(C)C/C(=C\c2ccccc2)C(=O)c2ccccc21
endpoint: mean survival time, dose: 100.0 mg/kg/injection, schedule: Q01DX009 (ip), vehicle: other
  T/C: 104 % of control
endpoint: mean survival time, dose: 200.0 mg/kg/injection, schedule: Q01DX009 (ip), vehicle: other
  T/C: 112 % of control
endpoint: mean survival time, dose: 400.0 mg/kg/injection, schedule: Q01DX009 (ip), vehicle: other
  T/C: 96 % of control

## O=C(O)CC(C(=O)O)c1ccc([N+](=O)[O-])cc1 (stereo unspecified)
[1]
  T/C: 93 % of control
[3]
  T/C: 93 % of control
[5]
  T/C: 97 % of control

## CC1CC2CC(=O)CCC2(C)C2CCC3(C)C(O)CCC3C12 (stereo unspecified)
endpoint: mean survival time, dose: 18.75 mg/kg/injection, schedule: Q01DX009 (ip), vehicle: Klucel (hydroxypropylcellulose) (HPC)
  T/C: 100 % of control
endpoint: mean survival time, dose: 37.5 mg/kg/injection, schedule: Q01DX009 (ip), vehicle: Klucel (hydroxypropylcellulose) (HPC)
  T/C: 100 % of control
endpoint: mean survival time, dose: 75.0 mg/kg/injection, schedule: Q01DX009 (ip), vehicle: Klucel (hydroxypropylcellulose) (HPC)
  T/C: 100 % of control
endpoint: mean survival time, dose: 150.0 mg/kg/injection, schedule: Q01DX009 (ip), vehicle: Klucel (hydroxypropylcellulose) (HPC)
  T/C: 95 % of control
endpoint: mean survival time, dose: 300.0 mg/kg/injection, schedule: Q01DX009 (ip), vehicle: Klucel (hydroxypropylcellulose) (HPC)
  T/C: 95 % of control

## CCNc1nc(NCC)nc(OC)n1
endpoint: mean survival time, dose: 50.0 mg/kg/injection, schedule: Q01DX009 (ip), vehicle: saline with Tween-80
  T/C: 95 % of control
[1]
  T/C: 105 % of control
[2]
  T/C: 87 % of control
[3]
  T/C: 103 % of control
[4]
  T/C: 89 % of control

## CCOC(=O)CN(c1c(C)cc([N+](=O)[O-])c2ccccc12)S(=O)(=O)c1ccccc1
endpoint: mean survival time, dose: 100.0 mg/kg/injection, schedule: Q01DX001 (ip), vehicle: saline with Tween-80
  T/C: 97 % of control
endpoint: mean survival time, dose: 200.0 mg/kg/injection, schedule: Q01DX001 (ip), vehicle: saline with Tween-80
  T/C: 94 % of control
endpoint: mean survival time, dose: 400.0 mg/kg/injection, schedule: Q01DX001 (ip), vehicle: saline with Tween-80
  T/C: 96 % of control

## N=c1nc2c3ccccc3nnn2c2ccccc12
endpoint: mean survival time, dose: 50.0 mg/kg/injection, schedule: Q01DX001 (ip), vehicle: Klucel (hydroxypropylcellulose) (HPC)
  T/C: 101 % of control
endpoint: mean survival time, dose: 100.0 mg/kg/injection, schedule: Q01DX001 (ip), vehicle: Klucel (hydroxypropylcellulose) (HPC)
  T/C: 112 % of control
